Patent US10093611B2, “Benzocycloalkenes as antifungal agents” (Bayer Intellectual Property GmbH, priority 2010, dated 2018)

Tested on: Pyrenophora teres
Test: In vivo preventive test on Pyrenophora teres (barley)
Details: 500 ppm of active ingredient, evaluated 7-9 days after inoculation
Method: EXAMPLE F: IN VIVO PREVENTIVE TEST ON PYRENOPHORA TERES (BARLEY) Solvent: 49 parts by weight of N,N-dimethylformamide Emulsifier: 1 part by weight of Alkylarylpolyglycolether To produce a suitable preparation of active compound, 1 part by weight of active compound is mixed with the stated amounts of solvent and emulsifier, and the concentrate is diluted with water to the desired concentration. To test for preventive activity, young plants are sprayed with the preparation of active compound at the stated rate of application. One day after this treatment, the plants are inoculated with an aqueous spore suspension of Pyrenophora teres. The plants remain for 48 hours in an incubation cabinet at 22° C. and a relative atmospheric humidity of 100%. Then the plants are placed in a greenhouse at a temperature of approximately 20° C. and a relative atmospheric humidity of approximately 80%. The test is evaluated 7-9 days after the inoculation. 0% means an efficacy which corresponds to that of the untreated control while an efficacy of 100% means that no disease is observed. Under these conditions, high (at least 90%) to total protection is observed at a dose of 500 ppm of active ingredient with the following compounds from table F: […]

SMILES | Efficacy [%]
Cc1nn(C)c(F)c1C(=O)N(C1CC1)C1CCc2ccccc2C1 (stereo not drawn) [Example 4] | 90
CCc1nn(C)c(F)c1C(=O)N(C1CC1)C1CCc2ccccc2C1 (stereo not drawn) [Example 5] | 95
Cn1cc(C(=O)N(C2CC2)C2CCc3ccccc3C2)c(C(F)F)n1 (stereo not drawn) [Example 6] | 100
Cn1nc(C(F)F)c(C(=O)N(C2CC2)C2CCc3ccccc3C2)c1F (stereo not drawn) [Example 7] | 100
Cn1cc(C(=S)N(C2CC2)C2CCc3ccccc3C2)c(C(F)F)n1 (stereo not drawn) [Example 8] | 95
Cn1nc(C(F)F)c(C(=S)N(C2CC2)C2CCc3ccccc3C2)c1F (stereo not drawn) [Example 9] | 100
Cc1cc(C(=O)N(C2CC2)C(C)C2Cc3ccccc3C2)c(C)o1 (stereo not drawn) [Example 10] | 90
Cn1cc(C(=O)N(CC2Cc3ccccc3O2)C2CC2)c(C(F)F)n1 (stereo not drawn) [Example 18] | 95
Cn1nc(C(F)F)c(C(=O)N(CC2Cc3ccccc3O2)C2CC2)c1F (stereo not drawn) [Example 19] | 100
Cn1nc(C(F)F)c(C(=O)N(CC2COc3ccccc3C2)C2CC2)c1F (stereo not drawn) [Example 20] | 100

Tested on: Alternaria solani
Test: In vivo preventive test on Alternaria solani (tomato)
Details: 500 ppm of active ingredient, evaluated 7 days after inoculation
Method: EXAMPLE A: IN VIVO PREVENTIVE TEST ON ALTERNARIA SOLANI (TOMATO) Solvent: 49 parts by weight of N,N-dimethylformamide Emulsifier: 1 part by weight of Alkylarylpolyglycolether To produce a suitable preparation of active compound, 1 part by weight of active compound is mixed with the stated amounts of solvent and emulsifier, and the concentrate is diluted with water to the desired concentration. To test for preventive activity, young plants are sprayed with the preparation of active compound at the stated rate of application. One day after this treatment, the plants are inoculated with an aqueous spore suspension of Alternaria solani. The plants remain for one day in an incubation cabinet at approximately 22° C. and a relative atmospheric humidity of 100%. Then the plants are placed in an incubation cabinet at approximately 20° C. and a relative atmospheric humidity of 96%. The test is evaluated 7 days after the inoculation. 0% means an efficacy which corresponds to that of the control while an efficacy of 100% means that no disease is observed. Under these conditions, good (at least 80%) to total protection is observed at a dose of 500 ppm of active ingredient with the following compounds from table A: […]

SMILES | Efficacy [%]
Cn1nc(C(F)F)c(C(=O)N(C2CC2)C2Cc3ccccc3C2)c1Cl [Example 1] | 89
Cn1nc(C(F)F)c(C(=O)N(C2CC2)C2Cc3ccccc3C2)c1F [Example 2] | 94
CCc1nn(C)c(F)c1C(=O)N(C1CC1)C1CCc2ccccc2C1 (stereo not drawn) [Example 5] | 95
Cn1cc(C(=O)N(C2CC2)C2CCc3ccccc3C2)c(C(F)F)n1 (stereo not drawn) [Example 6] | 95
Cn1nc(C(F)F)c(C(=O)N(C2CC2)C2CCc3ccccc3C2)c1F (stereo not drawn) [Example 7] | 100
Cn1nc(C(F)F)c(C(=S)N(C2CC2)C2CCc3ccccc3C2)c1F (stereo not drawn) [Example 9] | 93
Cc1cc(C(=O)N(C2CC2)C(C)C2Cc3ccccc3C2)c(C)o1 (stereo not drawn) [Example 10] | 95
Cn1nc(C(F)F)c(C(=O)N(CC2COc3ccccc3C2)C2CC2)c1F (stereo not drawn) [Example 20] | 80

Tested on: not listed separately
Test: log P by HPLC on reversed-phase column (C 18), EEC Directive 79/831 Annex V.A8
Assay type: physicochemical
Details: C 18 reversed phase, 40° C., 0.1% aqueous formic acid and acetonitrile gradient
Method: In table 1, the log P values were determined in accordance with EEC Directive 79/831 Annex V.A8 by HPLC (High Performance Liquid Chromatography) on a reversed-phase column (C 18), using the method described below: Temperature: 40° C.; Mobile phases: 0.1% aqueous formic acid and acetonitrile; linear gradient from 10% acetonitrile to 90% acetonitrile. Calibration was carried out using unbranched alkan-2-ones (comprising 3 to 16 carbon atoms) with known log P values (determination of the log P values by the retention times using linear interpolation between two successive alkanones). lambda-max-values were determined using UV-spectra from 200 nm to 400 nm and the peak values of the chromatographic signals.

SMILES | logP
Cn1nc(C(F)F)c(C(=O)N(C2CC2)C2Cc3ccccc3C2)c1Cl [Example 1] | 3.35
Cc1cc(C(=O)N(C2CC2)C2CCc3ccccc3C2)c(C)o1 (stereo not drawn) [Example 3] | 4.01
Cc1nn(C)c(F)c1C(=O)N(C1CC1)C1CCc2ccccc2C1 (stereo not drawn) [Example 4] | 3.00
CCc1nn(C)c(F)c1C(=O)N(C1CC1)C1CCc2ccccc2C1 (stereo not drawn) [Example 5] | 3.35
Cn1nc(C(F)F)c(C(=O)N(C2CC2)C2CCc3ccccc3C2)c1F (stereo not drawn) [Example 7] | 3.48
Cn1nc(C(F)F)c(C(=S)N(C2CC2)C2CCc3ccccc3C2)c1F (stereo not drawn) [Example 9] | 4.21
Cc1cc(C(=O)N(C2CC2)C(C)C2Cc3ccccc3C2)c(C)o1 (stereo not drawn) [Example 10] | 4.34
CC(C1CCc2ccccc2C1)N(C(=O)c1ccsc1I)C1CC1 (stereo not drawn) [Example 15] | 4.82

Results, then the compound that gave them:

logP | SMILES
3.19 | Cn1nc(C(F)F)c(C(=O)N(C2CC2)C2Cc3ccccc3C2)c1F [Example 2]
3.08 | Cn1cc(C(=O)N(C2CC2)C2CCc3ccccc3C2)c(C(F)F)n1 (stereo not drawn) [Example 6]
3.73 | Cn1cc(C(=S)N(C2CC2)C2CCc3ccccc3C2)c(C(F)F)n1 (stereo not drawn) [Example 8]
2.54 | Cn1cc(C(=O)N(CC2Cc3ccccc3O2)C2CC2)c(C(F)F)n1 (stereo not drawn) [Example 18]
2.86 | Cn1nc(C(F)F)c(C(=O)N(CC2Cc3ccccc3O2)C2CC2)c1F (stereo not drawn) [Example 19]
3.00 | Cn1nc(C(F)F)c(C(=O)N(CC2COc3ccccc3C2)C2CC2)c1F (stereo not drawn) [Example 20]
3.04 | Cn1nc(C(F)F)c(C(=O)N(CC2Cc3ccccc3O2)C2CC2)c1Cl (stereo not drawn) [Example 21]

Tested on: Leptosphaeria nodorum
Test: In vivo preventive test on Leptosphaeria nodorum (wheat)
Details: 500 ppm of active ingredient, evaluated 8 days after inoculation
Method: EXAMPLE D: IN VIVO PREVENTIVE TEST ON LEPTOSPHAERIA NODORUM (WHEAT) Solvent: 49 parts by weight of N,N-dimethylacetamide Emulsifier: 1 part by weight of alkylaryl polyglycol ether To produce a suitable preparation of active compound, 1 part by weight of active compound or the compound combination is mixed with the stated amounts of solvent and emulsifier, and the concentrate is diluted with water to the desired concentration. To test for protective activity, young plants are sprayed with a preparation of active compound or active compound combination at the stated rate of application. After the spray coating has dried on, the plants are sprayed with a spore suspension of Leptosphaeria nodorum. The plants remain for 48 hours in an incubation cabinet at 20° C. and a relative atmospheric humidity of 100%. The plants are placed in a greenhouse at a temperature of approximately 22° C. and a relative atmospheric humidity of approximately 80%. The test is evaluated 8 days after the inoculation. 0% means an efficacy which corresponds to that of the control, while an efficacy of 100% means that no disease is observed. Under these conditions, good (at least 75%) to total protection is observed at a dose of 500 ppm of active ingredient with the following compounds from table D: Under the same conditions, excellent protection (greater than 94%) is observed at a dose of 500 ppm of active ingredient with compound 2, whereas poor protection (less than 30%) is observed with the isosteric analogue compound CMP1 claimed in WO-2009/016218 as in table D2.

SMILES | Efficacy [%]
Cn1nc(C(F)F)c(C(=O)N(C2CC2)C2Cc3ccccc3C2)c1F [Example 2] | 94
CCc1nn(C)c(F)c1C(=O)N(C1CC1)C1CCc2ccccc2C1 (stereo not drawn) [Example 5] | 78
Cn1nc(C(F)F)c(C(=O)N(C2CC2)C2CCc3ccccc3C2)c1F (stereo not drawn) [Example 7] | 94

Same assay, conditions: 500 ppm of active ingredient, evaluated 8 days after inoculation, listed as compound 2

SMILES | Efficacy
Cn1nc(C(F)F)c(C(=O)N(C2CC2)C2Cc3ccccc3C2)c1F [Example 2] | greater than 94%

Tested on: Sphaerotheca fuliginea
Test: In vivo preventive test on Sphaerotheca fuliginea (cucumbers)
Details: 500 ppm of active ingredient, evaluated 7 days after inoculation
Method: EXAMPLE H: IN VIVO PREVENTIVE TEST ON SPHAEROTHECA FULIGINEA (CUCUMBERS) Solvent: 24.5 parts by weight of acetone • 24.5 parts by weight of N,N-dimethylacetamide Emulsifier: 1 part by weight of alkylaryl polyglycol ether To produce a suitable preparation of active compound, 1 part by weight of active compound is mixed with the stated amounts of solvent and emulsifier, and the concentrate is diluted with water to the desired concentration. To test for protect activity, young plants are sprayed with the preparation of active compound at the stated rate of application. After the spray coating has dried on, the plants are inoculated with an aqueous spore suspension of Sphaerotheca fuliginea. The plants are then placed in a greenhouse at approximately 23° C. and a relative atmospheric humidity of approximately 70%. The test is evaluated 7 days after the inoculation. 0% means an efficacy which corresponds to that of the untreated control, while an efficacy of 100% means that no disease is observed. Under these conditions, high (at least 90%) to total protection is observed at a dose of 100 ppm of active ingredient with the following compounds from table H: Under the same conditions, high protection (greater than 80%) is observed at a dose of 500 ppm of active ingredient with compound 7, whereas poor protection (less than 20%) is observed with the isosteric analogue compound CMP2 claimed in WO-2009/016218 as in table H2.

SMILES | Efficacy [%]
Cn1nc(C(F)F)c(C(=O)N(C2CC2)C2CCc3ccccc3C2)c1F (stereo not drawn) [Example 7] | 80

Same assay, conditions: 500 ppm of active ingredient, evaluated 7 days after inoculation, listed as compound 7

SMILES | Efficacy
Cn1nc(C(F)F)c(C(=O)N(C2CC2)C2CCc3ccccc3C2)c1F (stereo not drawn) [Example 7] | greater than 80%
